Laboratory results: patent US20240299393A1, “SMALL MOLECULE DISRUPTORS OF PROTEIN INTERACTIONS IN HISTONE DEACETYLASE COMPLEXES” (Dana-Farber Cancer Institute, Inc., priority 2021, published 2024)

How the values were obtained:
[1] = biological target: T1, Sin3-Ume6 (Saccharomyces cerevisiae, UniProt P22579); assay: GPCA binary PPI inhibition in HEK293T cells, Sin3-Ume6; assay type: cell-based, human HEK293T cells
T1 construct: ORFs corresponding to full-length subunits of the Rpd3L HDAC complex were PCR-amplified from yeast genomic DNA; expressed in transfected cells; host or cells: HEK293T
T1 sequence (P22579 whole entry): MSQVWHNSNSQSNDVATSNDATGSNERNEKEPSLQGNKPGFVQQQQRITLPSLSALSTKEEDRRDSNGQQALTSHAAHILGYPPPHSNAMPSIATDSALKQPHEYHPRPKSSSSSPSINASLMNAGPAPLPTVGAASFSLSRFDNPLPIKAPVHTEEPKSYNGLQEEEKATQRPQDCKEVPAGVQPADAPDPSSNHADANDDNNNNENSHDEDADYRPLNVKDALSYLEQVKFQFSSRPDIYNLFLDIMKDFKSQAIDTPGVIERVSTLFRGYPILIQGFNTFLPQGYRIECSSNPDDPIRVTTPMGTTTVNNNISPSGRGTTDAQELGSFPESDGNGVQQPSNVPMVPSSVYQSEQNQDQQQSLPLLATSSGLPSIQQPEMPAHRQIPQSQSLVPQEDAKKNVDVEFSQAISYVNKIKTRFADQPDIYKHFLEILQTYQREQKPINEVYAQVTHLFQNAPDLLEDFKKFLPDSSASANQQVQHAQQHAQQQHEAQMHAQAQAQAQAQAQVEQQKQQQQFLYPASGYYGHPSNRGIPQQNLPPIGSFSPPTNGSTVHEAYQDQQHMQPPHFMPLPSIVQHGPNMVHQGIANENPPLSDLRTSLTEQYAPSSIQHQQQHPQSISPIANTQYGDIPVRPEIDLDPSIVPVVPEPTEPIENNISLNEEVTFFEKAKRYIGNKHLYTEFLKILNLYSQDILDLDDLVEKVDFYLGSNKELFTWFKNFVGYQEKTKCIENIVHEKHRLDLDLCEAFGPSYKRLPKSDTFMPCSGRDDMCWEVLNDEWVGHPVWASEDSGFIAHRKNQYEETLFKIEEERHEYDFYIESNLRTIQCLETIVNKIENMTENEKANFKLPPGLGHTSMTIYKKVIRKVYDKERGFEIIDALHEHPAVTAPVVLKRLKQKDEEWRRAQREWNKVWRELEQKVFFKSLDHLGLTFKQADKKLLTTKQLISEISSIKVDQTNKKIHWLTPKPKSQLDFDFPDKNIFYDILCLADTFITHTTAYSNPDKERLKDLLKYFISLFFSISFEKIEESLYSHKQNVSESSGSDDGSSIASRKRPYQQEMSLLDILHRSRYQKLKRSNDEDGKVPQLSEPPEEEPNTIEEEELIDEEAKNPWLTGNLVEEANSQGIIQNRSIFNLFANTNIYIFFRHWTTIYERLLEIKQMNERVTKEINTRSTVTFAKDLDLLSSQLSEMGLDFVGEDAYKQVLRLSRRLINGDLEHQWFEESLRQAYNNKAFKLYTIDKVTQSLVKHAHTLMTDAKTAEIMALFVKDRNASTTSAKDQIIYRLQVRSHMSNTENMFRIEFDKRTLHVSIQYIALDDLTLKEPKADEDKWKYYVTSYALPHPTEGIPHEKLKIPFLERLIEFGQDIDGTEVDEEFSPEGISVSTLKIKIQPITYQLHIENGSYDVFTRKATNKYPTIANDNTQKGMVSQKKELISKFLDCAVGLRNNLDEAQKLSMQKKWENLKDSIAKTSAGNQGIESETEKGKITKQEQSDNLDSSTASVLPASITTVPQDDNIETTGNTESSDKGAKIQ
Procedure: (§1) GPCA (N1-N2 version) was implemented as reported in [Choi et al 2019]. HEK293T cells were seeded at 6×10^4 cells per well in 96-well, flat-bottom, cell culture microplates (Greiner Bio-One, #655083), and cultured in Dulbecco's modified Eagle's medium (DMEM) supplemented with 10% fetal calf serum at 37° C. and 5% CO2. Twenty-four hours later, cells were transfected with 100 ng of each GPCA plasmid (GPCA-N1 and GPCA-N2) using linear polyethylenimine (PEI) to co-express the protein pairs fused with complementary luciferase fragments, Luc1 and Luc2. The DNA/PEI ratio used for transfection was 1:3 (mass:mass). […] Luminescence was measured by auto-injecting 50 μL Renilla luciferase substrate (Renilla Luciferase Assay system, catalog No. E2820, Promega) per well and integrating light output for 4 s using a TriStar luminometer (Berthold).
(§2) The ability of compounds to inhibit binary PPIs in the Sin3/Rpd3L HDAC complex was tested by GPCA in a high-throughput screening format. […] The luminescence signal for each PPI was measured by averaging the different DMSO replicates, and calculating the standard deviation of DMSO values for each interaction. […] For each interaction, a particular compound was scored as a PPI inhibitor when it decreased its luminescence signal by at least three standard deviations compared to the corresponding averaged DMSO value. […]

[2] = test system: Rpd3L HDAC binary PPIs other than Sin3-Ume6; assay: GPCA binary PPI inhibition, other Rpd3L HDAC PPIs; assay type: cell-based, S. cerevisiae; settings: 10 μM
Procedure: as §1, §2

Compound: CC(NC(=O)c1c(O)n2ccccc2nc1=O)c1ccccc1 (racemic) [E6]
- inhibition of Sin3-Ume6 PPI (fold change over DMSO) ([1]; 10 μM, 1 h): ~2.5 fold
- inhibition of Sin3-Ume6 PPI ([1]; GPCA): selectively inhibit
- effect on all other PPIs [2]: unperturbed
